# Reference: patent US20240018158A1, “BRM TARGETING COMPOUNDS AND ASSOCIATED METHODS OF USE” (Prelude Therapeutics Incorporated, priority 2020, published 2024)
# Legend:
# SMARCA2 = SMARCA2 (Homo sapiens (Human), UniProt P51531); experiment: SMARCA2 HiBiT degradation assay in HeLa cells; assay type: cell-based; settings: 18 hours; for DC50: read-out: DC50 (SM2-HeLa) SMARCA2 degradation potency; for Dmax: read-out: Dmax % (SM2-HeLa) maximum SMARCA2 degradation within the concentrations tested
# Summary of the method: (§1)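 HeLa monoclonal lines carrying a heterozygous HiBiT knock-in on SMARCA2 or SMARCA4 were seeded at 2500 cells/well in EMEM with 10% FBS. After 18 h compound exposure at 37 °C, Nano-Glo HiBiT lytic detection ran 30-60 min at RT before the luminescence read. Values are from curve fits.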
# SMARCA4 = SMARCA4 (Homo sapiens (Human), UniProt P51532); experiment: SMARCA4 HiBiT degradation assay in HeLa cells; assay type: cell-based; settings: 18 hours; for DC50: read-out: DC50 (SM4-HeLa) SMARCA4 degradation potency; for Dmax: HeLa, read-out: Dmax % (SM4-HeLa) maximum SMARCA4 degradation within the concentrations tested
# Summary of the method: as §1
# Sequence of SMARCA2 (P51531 whole entry): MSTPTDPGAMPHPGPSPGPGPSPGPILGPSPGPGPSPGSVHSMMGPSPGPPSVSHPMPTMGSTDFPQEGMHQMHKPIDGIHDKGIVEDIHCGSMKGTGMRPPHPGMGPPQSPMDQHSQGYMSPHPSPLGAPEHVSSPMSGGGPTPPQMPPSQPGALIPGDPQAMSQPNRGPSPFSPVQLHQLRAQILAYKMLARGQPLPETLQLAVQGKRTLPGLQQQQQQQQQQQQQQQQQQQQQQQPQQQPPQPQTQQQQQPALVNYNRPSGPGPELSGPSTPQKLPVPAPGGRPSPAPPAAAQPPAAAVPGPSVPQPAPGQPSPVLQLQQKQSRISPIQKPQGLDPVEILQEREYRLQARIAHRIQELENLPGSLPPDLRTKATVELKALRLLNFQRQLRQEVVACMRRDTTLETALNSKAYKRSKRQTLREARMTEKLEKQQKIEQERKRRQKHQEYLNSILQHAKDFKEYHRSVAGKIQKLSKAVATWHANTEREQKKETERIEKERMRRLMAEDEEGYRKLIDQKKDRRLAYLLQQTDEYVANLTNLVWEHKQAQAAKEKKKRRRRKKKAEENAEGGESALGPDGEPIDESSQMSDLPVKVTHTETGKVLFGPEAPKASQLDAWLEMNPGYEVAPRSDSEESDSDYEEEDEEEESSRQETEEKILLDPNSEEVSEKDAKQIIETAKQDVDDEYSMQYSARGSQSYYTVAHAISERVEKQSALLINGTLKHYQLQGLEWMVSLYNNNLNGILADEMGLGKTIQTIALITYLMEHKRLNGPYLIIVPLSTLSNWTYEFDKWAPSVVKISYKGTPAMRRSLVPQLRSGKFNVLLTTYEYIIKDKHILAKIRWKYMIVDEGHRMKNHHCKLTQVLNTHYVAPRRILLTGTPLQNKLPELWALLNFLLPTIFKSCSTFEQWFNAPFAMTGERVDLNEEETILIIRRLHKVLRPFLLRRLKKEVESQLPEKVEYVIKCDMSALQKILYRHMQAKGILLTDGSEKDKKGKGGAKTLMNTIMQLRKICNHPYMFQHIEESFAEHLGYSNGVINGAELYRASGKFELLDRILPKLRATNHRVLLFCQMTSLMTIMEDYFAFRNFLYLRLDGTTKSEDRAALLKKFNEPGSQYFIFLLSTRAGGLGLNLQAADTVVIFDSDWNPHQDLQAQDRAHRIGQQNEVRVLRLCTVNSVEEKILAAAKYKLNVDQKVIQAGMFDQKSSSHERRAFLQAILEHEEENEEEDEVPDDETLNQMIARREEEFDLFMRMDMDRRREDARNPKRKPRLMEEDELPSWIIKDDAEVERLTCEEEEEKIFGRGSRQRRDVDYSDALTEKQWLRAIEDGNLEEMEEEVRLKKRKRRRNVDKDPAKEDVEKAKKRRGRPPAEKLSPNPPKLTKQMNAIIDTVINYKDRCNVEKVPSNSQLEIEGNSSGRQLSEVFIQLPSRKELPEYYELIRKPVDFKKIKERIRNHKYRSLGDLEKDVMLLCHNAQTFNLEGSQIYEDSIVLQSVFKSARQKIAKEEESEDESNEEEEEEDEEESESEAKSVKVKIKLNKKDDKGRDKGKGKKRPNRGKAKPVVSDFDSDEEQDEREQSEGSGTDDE
# Sequence of SMARCA4 (P51532 whole entry): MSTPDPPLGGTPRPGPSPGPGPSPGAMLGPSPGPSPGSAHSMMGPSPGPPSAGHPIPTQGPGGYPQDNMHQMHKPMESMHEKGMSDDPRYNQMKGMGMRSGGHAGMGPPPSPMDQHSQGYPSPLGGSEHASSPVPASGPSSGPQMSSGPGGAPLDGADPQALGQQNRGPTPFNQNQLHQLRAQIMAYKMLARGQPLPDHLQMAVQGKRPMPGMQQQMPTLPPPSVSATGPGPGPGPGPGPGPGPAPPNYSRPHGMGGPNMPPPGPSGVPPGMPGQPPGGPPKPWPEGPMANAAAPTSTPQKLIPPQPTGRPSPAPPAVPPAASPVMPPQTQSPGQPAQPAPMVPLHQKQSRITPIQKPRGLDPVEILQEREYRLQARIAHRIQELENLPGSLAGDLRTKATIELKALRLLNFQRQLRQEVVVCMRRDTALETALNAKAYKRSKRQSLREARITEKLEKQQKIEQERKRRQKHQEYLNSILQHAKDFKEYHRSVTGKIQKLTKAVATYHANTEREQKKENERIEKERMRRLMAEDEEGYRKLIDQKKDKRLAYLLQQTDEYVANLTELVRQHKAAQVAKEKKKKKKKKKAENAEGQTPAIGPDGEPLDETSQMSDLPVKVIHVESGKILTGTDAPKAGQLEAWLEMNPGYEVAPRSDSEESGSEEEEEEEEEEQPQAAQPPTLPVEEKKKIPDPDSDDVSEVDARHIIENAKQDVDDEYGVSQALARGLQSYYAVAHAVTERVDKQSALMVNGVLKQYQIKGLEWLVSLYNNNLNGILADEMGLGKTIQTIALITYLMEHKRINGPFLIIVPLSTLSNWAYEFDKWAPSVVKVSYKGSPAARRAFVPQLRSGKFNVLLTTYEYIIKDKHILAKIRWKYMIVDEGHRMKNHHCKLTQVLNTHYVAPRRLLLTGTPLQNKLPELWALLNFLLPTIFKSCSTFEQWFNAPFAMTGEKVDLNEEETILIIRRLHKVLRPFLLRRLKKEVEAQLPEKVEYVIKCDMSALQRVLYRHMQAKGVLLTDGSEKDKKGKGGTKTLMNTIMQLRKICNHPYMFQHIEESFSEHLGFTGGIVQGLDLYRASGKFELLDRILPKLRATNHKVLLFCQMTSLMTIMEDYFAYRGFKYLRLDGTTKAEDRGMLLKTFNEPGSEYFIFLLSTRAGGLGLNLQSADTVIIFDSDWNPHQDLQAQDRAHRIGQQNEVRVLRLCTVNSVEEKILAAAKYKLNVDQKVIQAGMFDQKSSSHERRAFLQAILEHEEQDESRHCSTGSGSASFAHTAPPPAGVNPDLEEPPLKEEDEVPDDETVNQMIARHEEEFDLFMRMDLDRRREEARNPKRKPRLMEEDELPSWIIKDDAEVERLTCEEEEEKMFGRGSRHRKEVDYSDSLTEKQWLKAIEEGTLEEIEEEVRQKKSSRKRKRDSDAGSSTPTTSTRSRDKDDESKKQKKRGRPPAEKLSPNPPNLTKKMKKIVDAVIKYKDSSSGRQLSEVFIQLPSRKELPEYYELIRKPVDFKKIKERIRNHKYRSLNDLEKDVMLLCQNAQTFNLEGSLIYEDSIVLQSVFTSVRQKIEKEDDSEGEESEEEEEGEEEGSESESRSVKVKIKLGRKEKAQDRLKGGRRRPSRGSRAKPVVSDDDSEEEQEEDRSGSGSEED
SMILES,DC50 (SMARCA2) [nM],Dmax (SMARCA2) [%],DC50 (SMARCA4) [nM],Dmax (SMARCA4) [%],Dmax % (SM2-HeLa) maximum SMARCA2 degradation within the concentrations tested (SMARCA2),Dmax % (SM4-HeLa) maximum SMARCA4 degradation within the concentrations tested (SMARCA4)
"Cc1ncsc1-c1ccc([C@H](C)NC(=O)[C@@H]2C[C@@H](O)CN2C(=O)[C@@H](c2cc(OC(C)CN3CCC(N4CCN5c6cc(-c7ccccc7O)nnc6NC[C@H]5C4)CC3)no2)C(C)C)cc1 (stereo partly drawn) [Example 57, (2S,4R)-4-hydroxy-1-((2R)-2-(3-((1-(4-((S)-2-(2-hydroxyphenyl)-5,6,6a,7,9,10-hexahydro-8H-pyrazino[1′,2′:4,5]pyrazino[2,3-c]pyridazin-8-yl)piperidin-1-yl)propan-2-yl)oxy)isoxazol-5-yl)-3-methylbutanoyl)-N-((S)-1-(4-(4-methylthiazol-5-yl)phenyl)ethyl)pyrrolidine-2-carboxamide]",< 100,> 75,100 to 1000,50 to 75,,
"Cc1ncsc1-c1ccc([C@H](C)NC(=O)[C@@H]2C[C@@H](O)CN2C(=O)C(c2cc(O[C@H](C)C(=O)N3CCC(N4CCN5c6cc(-c7ccccc7O)nnc6NC[C@H]5C4)C3)no2)C(C)C)cc1 (stereo partly drawn) [Example 28, (2S,4R)-4-hydroxy-1-(2-(3-(((2R)-1-(3-((S)-2-(2-hydroxyphenyl)-5,6,6a,7,9,10-hexahydro-8H-pyrazino[1′,2′:4,5]pyrazino[2,3-c]pyridazin-8-yl)pyrrolidin-1-yl)-1-oxopropan-2-yl)oxy)isoxazol-5-yl)-3-methylbutanoyl)-N-((S)-1-(4-(4-methylthiazol-5-yl)phenyl)ethyl)pyrrolidine-2-carboxamide]",< 100,> 75,100 to 1000,≤ 50,,
"Cc1ncsc1-c1ccc([C@H](C)NC(=O)[C@@H]2C[C@@H](O)CN2C(=O)[C@@H](c2cc(OCCN3CC=C(CN4CCN5c6cc(-c7ccccc7O)nnc6NC[C@H]5C4)CC3)no2)C(C)C)cc1 [Example 90, (2S,4R)-4-hydroxy-1-((R)-2-(3-(2-(4-(((S)-2-(2-hydroxyphenyl)-5,6,6a,7,9,10-hexahydro-8H-pyrazino[1′,2′:4,5]pyrazino[2,3-c]pyridazin-8-yl)methyl)-3,6-dihydropyridin-1(2H)-yl)ethoxy)isoxazol-5-yl)-3-methylbutanoyl)-N-((S)-1-(4-(4-methylthiazol-5-yl)phenyl)ethyl)pyrrolidine-2-carboxamide]",< 100,> 75,< 100,> 75,,
"Cc1ncsc1-c1ccc([C@H](C)NC(=O)[C@@H]2C[C@@H](O)CN2C(=O)[C@@H](c2cc(OCCN3CCC(C(C)N4CCN5c6cc(-c7ccccc7O)nnc6NC[C@H]5C4)CC3)no2)C(C)C)cc1 (single isomer, unassigned) [Example 59]",< 100,,< 100,,,
"Cc1ncsc1-c1ccc([C@H](C)NC(=O)[C@@H]2C[C@@H](O)CN2C(=O)[C@@H](c2cc(OCCN3CCCC(N4CCN5c6cc(-c7ccccc7O)nnc6NC[C@H]5C4)C3)no2)C(C)C)cc1 (single isomer, unassigned) [Example 41]",< 100,> 75,< 100,> 75,,
"Cc1ncsc1-c1ccc([C@H](C)NC(=O)[C@@H]2C[C@@H](O)CN2C(=O)[C@@H](c2cc(OCCN(C)C3CCC(N4CCN5c6cc(-c7ccccc7O)nnc6NC[C@H]5C4)CC3)no2)C(C)C)cc1 (stereo partly drawn) [Example 43, (2S,4R)-4-hydroxy-1-((R)-2-(3-(2-((4-((S)-2-(2-hydroxyphenyl)-5,6,6a,7,9,10-hexahydro-8H-pyrazino[1′,2′:4,5]pyrazino[2,3-c]pyridazin-8-yl)cyclohexyl)(methyl)amino)ethoxy)isoxazol-5-yl)-3-methylbutanoyl)-N-((S)-1-(4-(4-methylthiazol-5-yl)phenyl)ethyl)pyrrolidine-2-carboxamide]",< 100,> 75,< 100,> 75,,
"Cc1ncsc1-c1ccc([C@H](C)NC(=O)[C@@H]2C[C@@H](O)CN2C(=O)[C@@H](c2cc(O[C@H](C)CN3CCC(N4CCN5c6cc(-c7ccccc7O)nnc6NC[C@H]5C4)C3)no2)C(C)C)cc1 (single isomer, unassigned) [Example 51]",< 100,,< 100,,A/A (A = Dmax >75%),A/A (A = Dmax >75%)
"Cc1ncsc1-c1ccc([C@H](C)NC(=O)[C@@H]2C[C@@H](O)CN2C(=O)[C@@H](c2cc(OCCN3CCC(N4CCN5c6cc(-c7ccccc7O)nnc6NC[C@H]5C4)CC3)no2)C(C)C)cc1 [Example 76, (2S,4R)-4-hydroxy-1-((R)-2-(3-(2-(4-((S)-2-(2-hydroxyphenyl)-5,6,6a,7,9,10-hexahydro-8H-pyrazino[1′,2′:4,5]pyrazino[2,3-c]pyridazin-8-yl)piperidin-1-yl)ethoxy)isoxazol-5-yl)-3-methylbutanoyl)-N-((S)-1-(4-(4-methylthiazol-5-yl)phenyl)ethyl)pyrrolidine-2-carboxamide]",< 100,> 75,< 100,> 75,,

# Continued, values first:
DC50 (SMARCA2) [nM],Dmax (SMARCA2) [%],DC50 (SMARCA4) [nM],Dmax (SMARCA4) [%],Dmax % (SM2-HeLa) maximum SMARCA2 degradation within the concentrations tested (SMARCA2),Dmax % (SM4-HeLa) maximum SMARCA4 degradation within the concentrations tested (SMARCA4),SMILES
< 100,> 75,< 100,> 75,,,"Cc1ncsc1-c1ccc([C@H](C)NC(=O)[C@@H]2C[C@@H](O)CN2C(=O)[C@@H](c2cc(OCCN3CCC(N4CCN5c6cc(-c7ccccc7O)nnc6NCC5(C)C4)CC3)no2)C(C)C)cc1 (stereo partly drawn) [Example 63, (2S,4R)-4-hydroxy-1-((2R)-2-(3-(2-(4-(2-(2-hydroxyphenyl)-6a-methyl-5,6,6a,7,9,10-hexahydro-8H-pyrazino[1′,2′:4,5]pyrazino[2,3-c]pyridazin-8-yl)piperidin-1-yl)ethoxy)isoxazol-5-yl)-3-methylbutanoyl)-N-((S)-1-(4-(4-methylthiazol-5-yl)phenyl)ethyl)pyrrolidine-2-carboxamide]"
< 100,> 75,< 100,> 75,,,"Cc1ncsc1-c1ccc([C@H](C)NC(=O)[C@@H]2C[C@@H](O)CN2C(=O)[C@@H](c2cc(O[C@@H](C)CN3CCC(N4CCN5c6cc(-c7ccccc7O)nnc6NC(C)C5C4)CC3)no2)C(C)C)cc1 (stereo partly drawn) [Example 97, (2S,4R)-4-hydroxy-1-((2R)-2-(3-(((2S)-1-(4-(2-(2-hydroxyphenyl)-6-methyl-5,6,6a,7,9,10-hexahydro-8H-pyrazino[1′,2′:4,5]pyrazino[2,3-c]pyridazin-8-yl)piperidin-1-yl)propan-2-yl)oxy)isoxazol-5-yl)-3-methylbutanoyl)-N-((S)-1-(4-(4-methylthiazol-5-yl)phenyl)ethyl)pyrrolidine-2-carboxamide]"
< 100,> 75,100 to 1000,50 to 75,,,"Cc1ncsc1-c1ccc([C@H](C)NC(=O)[C@@H]2C[C@@H](O)CN2C(=O)[C@@H](c2cc(O[C@@H](C)C(=O)N3CCC(N4CCN5c6cc(-c7ccccc7O)nnc6NC[C@H]5C4)CC3)no2)C(C)C)cc1 [Example 27, (2S,4R)-4-hydroxy-1-((R)-2-(3-(((S)-1-(4-((S)-2-(2-hydroxyphenyl)-5,6,6a,7,9,10-hexahydro-8H-pyrazino[1′,2′:4,5]pyrazino[2,3-c]pyridazin-8-yl)piperidin-1-yl)-1-oxopropan-2-yl)oxy)isoxazol-5-yl)-3-methylbutanoyl)N-((S)-1-(4-(4-methylthiazol-5-yl)phenyl)ethyl)pyrrolidine-2-carboxamide]"
< 100,> 75,< 100,> 75,,,"Cc1ncsc1-c1ccc([C@H](C)NC(=O)[C@@H]2C[C@@H](O)CN2C(=O)[C@@H](c2cc(OCCN3CCC(N4C[C@@H]5CNc6nnc(-c7ccccc7O)cc6N5C[C@@H]4C)C3)no2)C(C)C)cc1 (stereo partly drawn) [Example 102, (2S,4R)-4-hydroxy-1-((2R)-2-(3-(2-(3-((6aS,9S)-2-(2-hydroxyphenyl)-9-methyl-5,6,6a,7,9,10-hexahydro-8H-pyrazino[1′,2′:4,5]pyrazino[2,3-c]pyridazin-8-yl)pyrrolidin-1-yl)ethoxy)isoxazol-5-yl)-3-methylbutanoyl)-N-((S)-1-(4-(4-methylthiazol-5-yl)phenyl)ethyl)pyrrolidine-2-carboxamide]"
< 100,> 75,< 100,50 to 75,,,"CCC(CN1CCC(N2CCN3c4cc(-c5ccccc5O)nnc4NC[C@H]3C2)CC1)Oc1cc([C@H](C(=O)N2C[C@H](O)C[C@H]2C(=O)N[C@@H](C)c2ccc(-c3scnc3C)cc2)C(C)C)on1 (stereo partly drawn) [Example 60, (2S,4R)-4-hydroxy-1-(2-(3-((1-(4-((S)-2-(2-hydroxyphenyl)-5,6,6a,7,9,10-hexahydro-8H-pyrazino[1′,2′:4,5]pyrazino[2,3-c]pyridazin-8-yl)piperidin-1-yl)butan-2-yl)oxy)isoxazol-5-yl)-3-methylbutanoyl)-N-((S)-1-(4-(4-methylthiazol-5-yl)phenyl)ethyl)pyrrolidine-2-carboxamide]"
